Source: US10364247B2, “Preparation and use of novel protein kinase inhibitors” (Ruijin Hospital Affiliated to Shanghai Jiao Tong University …, priority 2015, dated 2019)

Assays:
[1] = target: ABL1(F317L)-nonphosphorylated (Homo sapiens, UniProt P00519, F317L); test: KINOMEscan competition binding; settings: read-out: Percent Control
Protocol: (§1) KINOMEscan™ is based on a competition binding assay that quantitatively measures the ability of a compound to compete with an immobilized, active-site directed ligand (Fabian et al. (2005) Nat. Biotechnol. 23, 329; Karaman et al. (2008) Nat. Biotechnol. 26, 127). The compound was screened at 10 μM, and results for primary screen binding interactions are reported as ‘% Ctrl’, where lower numbers indicate stronger hits. The results for kinases targets with a % Ctrl less than 30 can be seen in Table 2.

[2] = target: T1, ABL1(H396P)-phosphorylated (Homo sapiens, UniProt P00519, H396P); test: KINOMEscan competition binding; settings: read-out: Percent Control
T1 construct: purchased KINOMEscan (panel service)
Protocol: as §1

ABL1-phosphorylated = ABL1-phosphorylated (Homo sapiens, UniProt P00519); test: KINOMEscan competition binding; settings: read-out: Percent Control
Protocol: as §1

ASK2 = target: T2, ASK2 (Homo sapiens, UniProt O95382); test: KINOMEscan competition binding; settings: ASK2 (Entrez MAP3K6), read-out: Percent Control
T2 construct: purchased KINOMEscan (screening service)
Protocol: as §1

BLK = BLK (Homo sapiens, UniProt P51451); test: KINOMEscan competition binding; settings: read-out: Percent Control
Protocol: as §1

BTK = target: T3, BTK (Homo sapiens, UniProt Q06187); test: KINOMEscan competition binding; settings: read-out: Percent Control
T3 construct: purchased KINOMEscan (panel service)
Protocol: as §1

CDC2L1 = target: T4, CDC2L1 (Homo sapiens, UniProt P21127); test: KINOMEscan competition binding; settings: CDC2L1 (Entrez CDK11B), read-out: Percent Control
T4 construct: purchased KINOMEscan (screening service)
Protocol: as §1

CSF1R = target: T5, CSF1R (Homo sapiens, UniProt P07333); test: KINOMEscan competition binding; settings: read-out: Percent Control
T5 construct: purchased KINOMEscan (panel service)
Protocol: as §1

EGFR(L858R) = target: T6, EGFR(L858R) (Homo sapiens, UniProt P00533, L858R); test: KINOMEscan competition binding; settings: read-out: Percent Control
T6 construct: purchased KINOMEscan (panel service)
Protocol: as §1

EGFR(T790M) = target: T7, EGFR(T790M) (Homo sapiens, UniProt P00533, T790M); test: KINOMEscan competition binding; settings: read-out: Percent Control
T7 construct: purchased KINOMEscan (screening service)
Protocol: as §1

EPHA6 = EPHA6 (Homo sapiens, UniProt Q9UF33); test: KINOMEscan competition binding; settings: read-out: Percent Control
Protocol: as §1

EPHA8 = target: T8, EPHA8 (Homo sapiens, UniProt P29322); test: KINOMEscan competition binding; settings: read-out: Percent Control
T8 construct: purchased KINOMEscan (panel service)
Protocol: as §1

EPHB2 = EPHB2 (Homo sapiens, UniProt P29323); test: KINOMEscan competition binding; settings: read-out: Percent Control
Protocol: as §1

ERBB2 = ERBB2 (Homo sapiens, UniProt P04626); test: KINOMEscan competition binding; settings: read-out: Percent Control
Protocol: as §1

ERBB4 = ERBB4 (Homo sapiens, UniProt Q15303); test: KINOMEscan competition binding; settings: read-out: Percent Control
Protocol: as §1

FLT1 = FLT1 (Homo sapiens, UniProt P17948); test: KINOMEscan competition binding; settings: read-out: Percent Control
Protocol: as §1

FLT3(K663Q) = FLT3(K663Q) (Homo sapiens, UniProt P36888, K663Q); test: KINOMEscan competition binding; settings: read-out: Percent Control
Protocol: as §1

FLT3(N841I) = FLT3(N841I) (Homo sapiens, UniProt P36888, N841I); test: KINOMEscan competition binding; settings: read-out: Percent Control
Protocol: as §1

FLT3(R834Q) = target: T9, FLT3(R834Q) (Homo sapiens, UniProt P36888, R834Q); test: KINOMEscan competition binding; settings: read-out: Percent Control
T9 construct: purchased KINOMEscan (screening service)
Protocol: as §1

IKK-beta = target: T10, IKK-beta (Homo sapiens, UniProt O14920); test: KINOMEscan competition binding; settings: IKK-beta (Entrez IKBKB), read-out: Percent Control
T10 construct: purchased KINOMEscan (screening service)
Protocol: as §1

KIT = target: T11, KIT (Homo sapiens, UniProt P10721); test: KINOMEscan competition binding; settings: read-out: Percent Control
T11 construct: purchased KINOMEscan (panel service)
Protocol: as §1

KIT(V559D, T670I) = KIT(V559D, T670I) (Homo sapiens, UniProt P10721, T670I/V559D); test: KINOMEscan competition binding; settings: read-out: Percent Control
Protocol: as §1

LOK = LOK (Homo sapiens, UniProt O94804); test: KINOMEscan competition binding; settings: LOK (Entrez STK10), read-out: Percent Control
Protocol: as §1

MAP3K15 = target: T12, MAP3K15 (Homo sapiens, UniProt Q6ZN16); test: KINOMEscan competition binding; settings: read-out: Percent Control
T12 construct: purchased KINOMEscan (screening service)
Protocol: as §1

MAP3K2 = MAP3K2 (Homo sapiens, UniProt Q9Y2U5); test: KINOMEscan competition binding; settings: read-out: Percent Control
Protocol: as §1

RET = RET (Homo sapiens, UniProt P07949); test: KINOMEscan competition binding; settings: read-out: Percent Control
Protocol: as §1

RIPK2 = RIPK2 (Homo sapiens, UniProt O43353); test: KINOMEscan competition binding; settings: read-out: Percent Control
Protocol: as §1

SIK = SIK (Homo sapiens, UniProt P57059); test: KINOMEscan competition binding; settings: SIK (Entrez SIK1), read-out: Percent Control
Protocol: as §1

STK36 = STK36 (Homo sapiens, UniProt Q9NRP7); test: KINOMEscan competition binding; settings: read-out: Percent Control
Protocol: as §1

TAOK2 = target: T13, TAOK2 (Homo sapiens, UniProt Q9UL54); test: KINOMEscan competition binding; settings: read-out: Percent Control
T13 construct: purchased KINOMEscan (screening service)
Protocol: as §1

TEC = TEC (Homo sapiens, UniProt P42680); test: KINOMEscan competition binding; settings: read-out: Percent Control
Protocol: as §1

YSK4 = YSK4 (Homo sapiens, UniProt Q56UN5); test: KINOMEscan competition binding; settings: read-out: Percent Control
Protocol: as §1

p38-alpha = target: T14, p38-alpha (Homo sapiens, UniProt Q16539); test: KINOMEscan competition binding; settings: p38-alpha (Entrez MAPK14), read-out: Percent Control
T14 construct: purchased KINOMEscan (panel service)
Protocol: as §1

p38-beta = p38-beta (Homo sapiens, UniProt Q15759); test: KINOMEscan competition binding; settings: p38-beta (Entrez MAPK11), read-out: Percent Control
Protocol: as §1

KU812 cells = test: Human leukemia cell proliferation (CellTiter Glo); assay type: cell-based; settings: compared to Imatinib and Ponatinib; FIG. 1
Protocol: Comparison of 50% inhibition concentration (IC50) of IA-9, imatinib and Ponatinib in KU812 leukemia cells.
IA-9 is a strong kinase inhibitor among the compounds of the invention. The activity of IA-9 to inhibit human leukemia cell proliferation was tested using CellTiter Glo Assay (Promega).

T3 sequence (Q06187 whole entry): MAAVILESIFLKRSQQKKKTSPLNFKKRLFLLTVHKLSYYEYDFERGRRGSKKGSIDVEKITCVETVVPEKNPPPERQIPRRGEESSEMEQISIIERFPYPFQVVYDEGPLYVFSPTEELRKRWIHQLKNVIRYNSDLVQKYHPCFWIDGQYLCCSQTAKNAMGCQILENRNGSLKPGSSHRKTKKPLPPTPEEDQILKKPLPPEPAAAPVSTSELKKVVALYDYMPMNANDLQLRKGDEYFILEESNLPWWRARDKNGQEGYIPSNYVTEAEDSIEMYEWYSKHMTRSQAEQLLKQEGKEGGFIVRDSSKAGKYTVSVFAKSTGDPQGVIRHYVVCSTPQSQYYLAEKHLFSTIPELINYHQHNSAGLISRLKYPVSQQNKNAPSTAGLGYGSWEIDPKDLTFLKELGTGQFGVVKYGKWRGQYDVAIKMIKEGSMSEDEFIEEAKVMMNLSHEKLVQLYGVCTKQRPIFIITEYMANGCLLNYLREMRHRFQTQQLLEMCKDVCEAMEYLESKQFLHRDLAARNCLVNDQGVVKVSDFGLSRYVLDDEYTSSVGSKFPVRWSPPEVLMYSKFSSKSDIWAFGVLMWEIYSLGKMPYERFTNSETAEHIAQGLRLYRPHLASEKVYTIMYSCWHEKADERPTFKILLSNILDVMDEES
T10 sequence (O14920 whole entry): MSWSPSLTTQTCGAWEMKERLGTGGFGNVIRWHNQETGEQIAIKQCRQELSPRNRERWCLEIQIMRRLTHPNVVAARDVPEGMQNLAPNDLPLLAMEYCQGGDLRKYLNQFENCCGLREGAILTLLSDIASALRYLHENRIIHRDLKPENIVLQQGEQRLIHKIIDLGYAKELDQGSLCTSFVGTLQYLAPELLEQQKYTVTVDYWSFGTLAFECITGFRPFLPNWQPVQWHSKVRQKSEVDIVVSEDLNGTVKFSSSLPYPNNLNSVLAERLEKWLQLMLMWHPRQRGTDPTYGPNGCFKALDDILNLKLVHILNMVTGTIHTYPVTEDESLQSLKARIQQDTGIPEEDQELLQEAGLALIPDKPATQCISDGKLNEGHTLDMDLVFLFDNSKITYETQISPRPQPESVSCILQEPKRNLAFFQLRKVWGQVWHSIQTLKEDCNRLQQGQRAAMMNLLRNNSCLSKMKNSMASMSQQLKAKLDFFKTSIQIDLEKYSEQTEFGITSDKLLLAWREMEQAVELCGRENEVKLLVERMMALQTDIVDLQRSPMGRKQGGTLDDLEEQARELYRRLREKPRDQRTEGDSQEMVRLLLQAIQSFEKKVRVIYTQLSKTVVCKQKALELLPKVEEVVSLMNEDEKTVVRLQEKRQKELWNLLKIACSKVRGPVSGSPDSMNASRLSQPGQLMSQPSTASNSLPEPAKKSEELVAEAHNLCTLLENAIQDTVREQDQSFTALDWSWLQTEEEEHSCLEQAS
T12 sequence (Q6ZN16 whole entry): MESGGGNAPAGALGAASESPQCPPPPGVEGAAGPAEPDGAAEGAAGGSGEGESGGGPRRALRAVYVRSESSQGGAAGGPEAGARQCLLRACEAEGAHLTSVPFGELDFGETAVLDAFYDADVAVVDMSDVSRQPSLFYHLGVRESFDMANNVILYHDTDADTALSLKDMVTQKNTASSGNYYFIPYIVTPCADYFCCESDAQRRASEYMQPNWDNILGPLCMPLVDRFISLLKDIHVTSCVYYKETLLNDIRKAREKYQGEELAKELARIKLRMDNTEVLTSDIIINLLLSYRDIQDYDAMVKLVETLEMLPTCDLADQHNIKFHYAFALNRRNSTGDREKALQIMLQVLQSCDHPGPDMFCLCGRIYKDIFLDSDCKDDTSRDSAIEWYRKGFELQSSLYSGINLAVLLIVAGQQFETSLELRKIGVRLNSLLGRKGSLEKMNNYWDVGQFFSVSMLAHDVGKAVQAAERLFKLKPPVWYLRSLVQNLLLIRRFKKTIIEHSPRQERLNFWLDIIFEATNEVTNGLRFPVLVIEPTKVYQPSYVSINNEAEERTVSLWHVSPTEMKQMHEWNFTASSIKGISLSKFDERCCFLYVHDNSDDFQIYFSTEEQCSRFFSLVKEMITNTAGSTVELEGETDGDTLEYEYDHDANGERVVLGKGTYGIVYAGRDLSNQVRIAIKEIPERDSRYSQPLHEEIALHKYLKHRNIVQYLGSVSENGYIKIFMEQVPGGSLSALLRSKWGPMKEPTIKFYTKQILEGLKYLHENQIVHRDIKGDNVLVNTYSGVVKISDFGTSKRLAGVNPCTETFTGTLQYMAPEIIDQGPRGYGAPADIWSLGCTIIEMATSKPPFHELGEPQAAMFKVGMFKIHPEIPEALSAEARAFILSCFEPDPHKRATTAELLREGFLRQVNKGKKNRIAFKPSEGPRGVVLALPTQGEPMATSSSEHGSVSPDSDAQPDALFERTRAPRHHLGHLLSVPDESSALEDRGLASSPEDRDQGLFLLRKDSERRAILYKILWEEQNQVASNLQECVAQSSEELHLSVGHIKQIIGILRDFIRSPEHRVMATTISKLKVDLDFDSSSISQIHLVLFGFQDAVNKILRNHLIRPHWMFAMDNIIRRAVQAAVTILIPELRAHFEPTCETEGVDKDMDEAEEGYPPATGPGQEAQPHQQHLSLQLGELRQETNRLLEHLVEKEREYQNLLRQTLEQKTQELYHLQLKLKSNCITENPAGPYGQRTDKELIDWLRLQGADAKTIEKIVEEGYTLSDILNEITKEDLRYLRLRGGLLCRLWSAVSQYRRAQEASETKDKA
Chain of LOK (O94804 whole entry): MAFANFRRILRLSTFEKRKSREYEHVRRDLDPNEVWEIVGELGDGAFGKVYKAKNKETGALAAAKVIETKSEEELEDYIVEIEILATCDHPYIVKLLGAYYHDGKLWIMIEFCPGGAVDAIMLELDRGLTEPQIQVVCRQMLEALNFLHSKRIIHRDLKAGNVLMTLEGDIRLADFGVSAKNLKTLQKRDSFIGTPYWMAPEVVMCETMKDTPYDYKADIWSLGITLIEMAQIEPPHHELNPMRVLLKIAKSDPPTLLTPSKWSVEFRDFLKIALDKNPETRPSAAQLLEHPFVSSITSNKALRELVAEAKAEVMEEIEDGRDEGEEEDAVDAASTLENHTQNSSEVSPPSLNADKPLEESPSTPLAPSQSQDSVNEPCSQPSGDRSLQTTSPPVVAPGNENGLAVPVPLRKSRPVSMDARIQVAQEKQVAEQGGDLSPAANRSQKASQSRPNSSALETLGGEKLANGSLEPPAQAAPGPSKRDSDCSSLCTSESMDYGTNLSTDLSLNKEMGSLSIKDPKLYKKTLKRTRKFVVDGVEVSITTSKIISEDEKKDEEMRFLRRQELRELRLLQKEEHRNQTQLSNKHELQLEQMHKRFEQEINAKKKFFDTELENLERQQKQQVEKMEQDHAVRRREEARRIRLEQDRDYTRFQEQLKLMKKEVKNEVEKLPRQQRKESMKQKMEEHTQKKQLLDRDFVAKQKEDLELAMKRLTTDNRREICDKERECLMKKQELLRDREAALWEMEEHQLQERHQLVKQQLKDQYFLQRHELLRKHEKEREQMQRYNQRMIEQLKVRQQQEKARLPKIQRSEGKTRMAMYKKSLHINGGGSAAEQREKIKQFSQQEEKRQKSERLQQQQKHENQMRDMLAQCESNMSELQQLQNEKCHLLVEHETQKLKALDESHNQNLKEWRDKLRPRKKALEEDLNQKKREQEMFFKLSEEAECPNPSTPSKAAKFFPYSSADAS
Chain of ERBB4 (Q15303 26-1308): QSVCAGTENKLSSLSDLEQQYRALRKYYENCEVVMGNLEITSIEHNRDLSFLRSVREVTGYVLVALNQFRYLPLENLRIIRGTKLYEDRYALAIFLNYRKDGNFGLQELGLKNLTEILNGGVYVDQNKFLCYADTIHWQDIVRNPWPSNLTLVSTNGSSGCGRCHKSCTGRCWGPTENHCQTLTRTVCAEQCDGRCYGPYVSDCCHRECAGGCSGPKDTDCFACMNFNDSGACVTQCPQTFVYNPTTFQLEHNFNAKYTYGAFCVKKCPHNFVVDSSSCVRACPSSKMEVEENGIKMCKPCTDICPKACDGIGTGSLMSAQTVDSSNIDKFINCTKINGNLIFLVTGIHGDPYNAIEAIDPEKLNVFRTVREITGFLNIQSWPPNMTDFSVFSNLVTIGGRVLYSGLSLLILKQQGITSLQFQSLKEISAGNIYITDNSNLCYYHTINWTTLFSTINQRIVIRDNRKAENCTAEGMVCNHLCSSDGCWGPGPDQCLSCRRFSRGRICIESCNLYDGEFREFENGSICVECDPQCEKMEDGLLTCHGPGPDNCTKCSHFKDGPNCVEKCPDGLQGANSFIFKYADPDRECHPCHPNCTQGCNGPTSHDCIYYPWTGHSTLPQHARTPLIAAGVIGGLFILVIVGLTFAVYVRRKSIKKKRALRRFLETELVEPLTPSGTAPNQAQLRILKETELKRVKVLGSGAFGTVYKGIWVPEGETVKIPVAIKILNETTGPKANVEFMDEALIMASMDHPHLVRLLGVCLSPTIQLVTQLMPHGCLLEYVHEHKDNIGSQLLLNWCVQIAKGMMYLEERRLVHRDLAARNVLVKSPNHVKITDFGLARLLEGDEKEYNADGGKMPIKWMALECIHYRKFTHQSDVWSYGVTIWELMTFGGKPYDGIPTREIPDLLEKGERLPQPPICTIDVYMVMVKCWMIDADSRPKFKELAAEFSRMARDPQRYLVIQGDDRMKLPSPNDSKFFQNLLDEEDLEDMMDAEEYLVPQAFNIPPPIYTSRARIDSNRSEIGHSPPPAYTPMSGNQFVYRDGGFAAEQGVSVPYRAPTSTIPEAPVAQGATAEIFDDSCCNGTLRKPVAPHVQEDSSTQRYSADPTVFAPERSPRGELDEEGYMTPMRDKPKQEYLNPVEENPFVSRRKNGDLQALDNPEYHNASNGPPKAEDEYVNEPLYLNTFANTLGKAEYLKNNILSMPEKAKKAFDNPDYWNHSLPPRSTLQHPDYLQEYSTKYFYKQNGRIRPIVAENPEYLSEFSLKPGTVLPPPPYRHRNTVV

Work on `Cc1ccc(Nc2ncc3c(n2)N(C)CN(c2cc(NC(=O)c4cccc(C(F)(F)F)c4)ccc2C)C3)cn1` [IA-9, N-(4-methyl-3-(1-methyl-7-((6-methylpyridin-3-yl)amino)-1,4-dihydropyrimido[4,5-d]pyrimidin-3(2H)-yl)phenyl)-3-(trifluoromethyl)benzamide] yielded a remaining binding at 10 µM [1] of 0%, a remaining binding at 10 µM [2] of 0.15% and a remaining binding at 10 µM (ABL1-phosphorylated) of 0.3%. For the same compound, the remaining binding at 10 µM (ASK2) was 7%, the remaining binding at 10 µM (BLK) was 0.3% and the remaining binding at 10 µM (BTK) was 0.15%. It also gave a remaining binding at 10 µM (CDC2L1) of 15%, a remaining binding at 10 µM (CSF1R) of 0.15% and a remaining binding at 10 µM (EGFR(L858R)) of 0.05%. For the same compound, the remaining binding at 10 µM (EGFR(T790M)) was 13%, the remaining binding at 10 µM (EPHA6) was 0% and the remaining binding at 10 µM (EPHA8) was 0.15%. For the same compound, the remaining binding at 10 µM (EPHB2) was 0%, the remaining binding at 10 µM (ERBB2) was 0% and the remaining binding at 10 µM (ERBB4) was 0%. The remaining binding at 10 µM (FLT1) was 0.55%, the remaining binding at 10 µM (FLT3(K663Q)) was 0.55% and the remaining binding at 10 µM (FLT3(N841I)) was 0.55%. It also gave a remaining binding at 10 µM (FLT3(R834Q)) of 20%, a remaining binding at 10 µM (IKK-beta) of 14% and a remaining binding at 10 µM (KIT) of 0.05%. The remaining binding at 10 µM (KIT(V559D, T670I)) was 0.3%, the remaining binding at 10 µM (LOK) was 0% and the remaining binding at 10 µM (MAP3K15) was 8.4%. It also gave a remaining binding at 10 µM (MAP3K2) of 5%, a remaining binding at 10 µM (RET) of 0% and a remaining binding at 10 µM (RIPK2) of 6%. The remaining binding at 10 µM (SIK) was 0.35%, the remaining binding at 10 µM (STK36) was 1.6% and the remaining binding at 10 µM (TAOK2) was 15%. For the same compound, the remaining binding at 10 µM (TEC) was 0.55%, the remaining binding at 10 µM (YSK4) was 0.3% and the remaining binding at 10 µM (p38-alpha) was 0.1%. The remaining binding at 10 µM (p38-beta) was 0% and the “inhibition of proliferation of KU812 cells” value (KU812 cells) was “stronger ability to inhibit proliferation of KU812 cells”.
